pIC50: −log10 of the molar value.
biological target: PIK3CB;PIK3CG;PIK3CD;PIK3CA (human) (UniProt P48736); test: Enzyme Assay

Row | Structure (SMILES) | pIC50
1 | COCCn1nc(C(=O)N2CCOCC2)c2c1-c1ccccc1S(=O)(=O)C2 | 5.89
2 | COCCN1CCC[C@H](n2nc(C(=O)N3CCOCC3)c3c2-c2ccccc2S(=O)(=O)C3)C1 | 7.40
3 | O=C(c1nn(-c2ccc(C3(CN4CCOCC4)CC3)cc2)c2c1CS(=O)(=O)c1ccccc1-2)N1CCOCC1 | 6.00
4 | NCCN1CCC[C@H](n2nc(C(=O)N3CCOCC3)c3c2-c2ccccc2S(=O)(=O)C3)C1 | 7.14
5 | Cn1cc(-n2nc(C(=O)N3CCOCC3)c3c2-c2ccccc2S(=O)(=O)C3)ccc1=O | 5.53
6 | Cc1nc(CN2CCCC(n3nc(C(=O)N4CCOCC4)c4c3-c3ccccc3S(=O)(=O)C4)C2)no1 (centres undefined) | 6.87
7 | CN(C)Cc1noc(-c2cccc(-n3nc(C(=O)N4CCOCC4)c4c3-c3ccccc3S(=O)(=O)C4)c2)n1 | 5.53
8 | O=C(c1nn([C@@H]2CCCNC2)c2c1CS(=O)(=O)c1ccccc1-2)N1CCOCC1 | 5.52
9 | CC1(C)CN(CCN2CCC[C@H](n3nc(C(=O)N4CCOCC4)c4c3-c3ccccc3S(=O)(=O)C4)C2)CCO1 | 7.14
10 | O=C(c1nn(-c2ccccn2)c2c1CS(=O)(=O)c1ccccc1-2)N1CCOCC1 | 5.80
11 | O=C(c1nn([C@H]2CCCN(CCn3ccnc3)C2)c2c1CS(=O)(=O)c1ccccc1-2)N1CCOCC1 | 5.25
12 | O=C(c1nn(C2CCN(CCC3CCOCC3)CC2)c2c1CS(=O)(=O)c1ccccc1-2)N1CCOCC1 | 6.16
13 | COC1CCN(Cc2ccc(-n3nc(C(=O)N4CCOCC4)c4c3-c3ccccc3S(=O)(=O)C4)cc2)C1 (centres undefined) | 7.23
14 | O=C(NC1CCCCC1)N1CCC(n2nc(C(=O)N3CCOCC3)c3c2-c2ccccc2S(=O)(=O)C3)C1 (centres undefined) | 6.06
15 | O=C(c1nn(C2CCN(CCO)CC2)c2c1CS(=O)(=O)c1ccccc1-2)N1CCOCC1 | 5.76
16 | CC(=O)Nc1cccc2c1S(=O)(=O)Cc1c(C(=O)N3CCOCC3)nn(-c3ccccc3)c1-2 | 5.01
17 | O=C(c1nn(-c2cccc(F)c2)c2c1CS(=O)(=O)c1ccccc1-2)N1CCOCC1 | 6.13

Row | Structure (SMILES) | pIC50
18 | O=C(c1cccc(-n2nc(C(=O)N3CCOCC3)c3c2-c2ccccc2S(=O)(=O)C3)c1)N1CCS(=O)(=O)CC1 | 6.50
19 | CN1CCCC(n2nc(C(=O)N3CCOCC3)c3c2-c2ccccc2S(=O)(=O)C3)C1 (centres undefined) | 6.11
20 | Cc1cccc2c1S(=O)(=O)Cc1c(C(=O)N3CCOCC3)nn([C@H]3CCCN(CCN4CCOCC4)C3)c1-2 | 7.31
21 | O=C(c1nn([C@H]2CCCN(CCN3CC(F)(F)C3)C2)c2c1CS(=O)(=O)c1c(F)cccc1-2)N1CCOCC1 | 7.66
22 | COc1ccc2c(c1)S(=O)(=O)Cc1c(C(=O)N3CCOCC3)nn([C@H]3CCCN(C4CCCOC4)C3)c1-2 (some centres undefined) | 7.62
23 | O=C(c1nn(-c2ccccc2)c2c1CS(=O)(=O)c1cc(Br)ccc1-2)N1CCOCC1 | 6.04
24 | CS(=O)(=O)Nc1cccc(-n2nc(C(=O)N3CCOCC3)c3c2-c2ccccc2S(=O)(=O)C3)c1 | 5.75
25 | O=C(c1nn(C2CCCN(CCn3ccnc3)C2)c2c1CS(=O)(=O)c1ccccc1-2)N1CCOCC1 (centres undefined) | 7.28
26 | Cc1ccccc1-n1nc(C(=O)N2CCOCC2)c2c1-c1ccccc1S(=O)(=O)C2 | 5.64
27 | O=C(c1nn(-c2ccccc2)c2c1CS(=O)(=O)c1ccc([N+](=O)[O-])cc1-2)N1CCOCC1 | 5.74
28 | O=C(c1nn(-c2cccc(Br)c2)c2c1CS(=O)(=O)c1ccccc1-2)N1CCOCC1 | 6.21
29 | O=C(c1nn([C@H]2CCCN(CCN3CCOCC3)C2)c2c1CS(=O)(=O)c1cc(F)ccc1-2)N1CCOCC1 | 7.85
30 | O=C(c1nn([C@H]2CCCN(CCN3CCCC3)C2)c2c1CS(=O)(=O)c1ccccc1-2)N1CCOCC1 | 8.15
31 | O=C(c1nn(-c2ccc(CN3CCCC3)cc2)c2c1CS(=O)(=O)c1ccccc1-2)N1CCOCC1 | 6.55
32 | Cn1cc(-c2cccc(-n3nc(C(=O)N4CCOCC4)c4c3-c3ccccc3S(=O)(=O)C4)c2)cn1 | 6.74
33 | O=C(c1nn(C2CCOCC2)c2c1CS(=O)(=O)c1sccc1-2)N1CCOCC1 | 6.08
34 | O=C(c1nn([C@H]2CCCN(CCN3CC[C@@H](F)C3)C2)c2c1CS(=O)(=O)c1ccccc1-2)N1CCOCC1 | 7.49

— the Kinase Knowledgebase extract (Sharma et al. 2016)
